From patent US20100029509A1, “NOVEL METHODS” (NATURAL ENVIRONMENT RESEARCH COUNCIL, priority 2006, published 2010)

Experiments:
[1] = tested on: xylR/Pu regulation system (Pu promoter activity); experiment: Induction of Pu promoter (relative bioluminescence, luxCDABE reporter) in Acinetobacter ADP1_pu_lux_xylR; assay type: cell-based, Acinetobacter baylyi ADP1; details: for Induction of Pu promoter: ADP1_pu_lux_xylR, inducer 100 μM in LB, following 30 hrs incubation; for Induction of Pu promoter activity: strain ADPWH_Pu_lux_xylR, bioluminescence from lux genes
Protocol: Pu promoter activity was monitored by measuring relative bioluminescence (bioluminescence divided by OD600). For each measurement, at each time point 100 μl samples were analyzed in triplicate in a well of a black, clear-bottom 96-well microplate (Fisher Scientific). At OD600 and Bioluminescence were measured using a Synergy HT Multi-Detection Microplate Reader (Bio-Tek™).
A single colony of Acinetobacter sp. ADP_pu_lux_xylR was separately inoculated into 5 ml LB medium in a 30-ml glass universal tube. Toluene, o-, m-, p-xylenes, phenol, benzene, naphthalene, 2-, 3-, or 4-hydroxybenzoic, benzoate or catechol was added into LB (100 μM) to assay induction of Pu. Samples were incubated at 20, 28, 30, 34 or 37° C. with shaking at 150 rpm. Samples were repeatedly loaded on black 96-well microplate for bioluminescence and OD600 measurement for 30 hours of incubation.

Pu promoter activity = experiment: Catabolic repression of Pu activity in ADP1_pu_lux_xylR grown in minimal medium; assay type: cell-based, Acinetobacter baylyi ADP1
Protocol: Pu promoter activity was monitored by measuring relative bioluminescence (bioluminescence divided by OD600). For each measurement, at each time point 100 μl samples were analyzed in triplicate in a well of a black, clear-bottom 96-well microplate (Fisher Scientific). At OD600 and Bioluminescence were measured using a Synergy HT Multi-Detection Microplate Reader (Bio-Tek™). To examine the effect of catabolic repression Acinetobacter sp. ADP1_pu_lux_xylR was inoculated into 5 ml MM supplemented with 50 mM glucose or succinate as a sole carbon source in a 30-ml glass universal tube. […] The bacterial samples were incubated at 28° C. shaker with shaking at 150 rpm. […] For each treatment, three replicates were carried out. Samples were taken and measured for bioluminescence and OD600 every 30 min.

[2] = tested on: salA promoter operably linked to the lux genes; details: LB + 6 μg/ml tetracycline + 2 mM salicylate, FIG. 11
[3] = tested on: xylR/Pu regulation system (Pu promoter activity); experiment: Induction of Pu promoter (relative bioluminescence, luxCDABE reporter) in Acinetobacter ADP1_pu_lux_xylR; assay type: cell-based, Acinetobacter baylyi ADP1; details: ADP1_Pu_lux_xylR on LB agar with 10 mM glucose, FIG. 1B; uninduced cells remained dark

Compound: Oc1ccccc1O [catechol]
- Induction of Pu promoter [1]: cannot be induced

Compound: O=C(O)CCC(=O)O [succniate, succinate]
- Repression of Pu activity by sole carbon source (Pu promoter activity; minimal medium with 50 mM carbon source, toluene, m-, p- or o-xylene 500 μM as inducers, 28° C., FIG. 3A): did

Compound: O=C(O)c1ccccc1O [2-hydroxybenzoic (salicylic acid), salicylic acid]
- Induction of Pu promoter [1]: cannot be induced

Compound: 6-phosphogluconic acid trisodium salt [6-phosphogluconate, reference compound]
- Effect on Pu activity of added candidate repression signal molecule (Pu promoter activity; added to MM-glucose at 0.1-300 μM after maximal induction by m-xylene, data not shown): did not affect Pu activity

Compound: O=C(O)c1ccccc1O [salicylate]
- Activation by salicylate, Transformant B (negative) [2]: not activated

Compound: O=C(O)c1cccc(O)c1 [3-hyroxybenzoic]
- Induction of Pu promoter [1]: cannot be induced

Compound: O=C(O)c1ccc(O)cc1 [4-hydroxybenzoic]
- Induction of Pu promoter [1]: cannot be induced

Compound: Cc1cccc(C)c1 [m-xylene]
- Induction of Pu promoter activity [1]: can be induced

Compound: Oc1ccccc1 [phenol]
- Induction of Pu promoter [1]: cannot be induced

Compound: c1ccccc1 [benzene]
- Induction of Pu promoter [1]: cannot be induced

Compound: Cc1ccccc1 [toluene]
- Induction of Pu promoter activity [1]: can be induced

Compound: c1ccc2ccccc2c1 [naphthalene]
- Induction of Pu promoter [1]: cannot be induced

Compound: O=C(O)c1ccccc1 [benzoate]
- Induction of Pu promoter [1]: cannot be induced

Compound: Cc1ccc(C)cc1 [p-xylene]
- Induction of Pu promoter activity [1]: can be induced

Compound: xylene
- Bioluminescence on agar medium when induced by vapors [3]: strong bioluminescence

Compound: Cc1ccccc1C [o-xylene]
- Induction of Pu promoter activity [1]: can be induced
